In publication PMC3677712 (Bioorganic & medicinal chemistry letters, 2013):
Where two headings read alike, the source gives them in different places.

Columns and labels:
[1] = Intrinsic clearance in hepatic microsomes; assay type: in vitro ADME; conditions: mouse
[2] = Intrinsic clearance in hepatic microsomes; assay type: in vitro ADME; conditions: rat
AMPK (AMPK-A1/B1/G1) [3] = biological target: T1, AMPK (AMPK-A1/B1/G1) (Homo sapiens, UniProt Q13131); test: In vitro kinase assay; assay type: biochemical; conditions: 10-dose, 3-fold dilution from 100 μM, 10 μM ATP
[4] = Intrinsic clearance in hepatic microsomes; assay type: in vitro ADME; conditions: human
AMPK (AMPK-A1/B1/G1) [5] = biological target: T1, AMPK (AMPK-A1/B1/G1); conditions: reference compounds previously run in these assays; cited from earlier work
ALK2 (Q207D) = conditions: mouse model expressing a constitutively active form of ALK2 (Q207D); cited from earlier work
[6] = predicted from microsomal intrinsic clearance

T1 sequence (Q13131 whole entry): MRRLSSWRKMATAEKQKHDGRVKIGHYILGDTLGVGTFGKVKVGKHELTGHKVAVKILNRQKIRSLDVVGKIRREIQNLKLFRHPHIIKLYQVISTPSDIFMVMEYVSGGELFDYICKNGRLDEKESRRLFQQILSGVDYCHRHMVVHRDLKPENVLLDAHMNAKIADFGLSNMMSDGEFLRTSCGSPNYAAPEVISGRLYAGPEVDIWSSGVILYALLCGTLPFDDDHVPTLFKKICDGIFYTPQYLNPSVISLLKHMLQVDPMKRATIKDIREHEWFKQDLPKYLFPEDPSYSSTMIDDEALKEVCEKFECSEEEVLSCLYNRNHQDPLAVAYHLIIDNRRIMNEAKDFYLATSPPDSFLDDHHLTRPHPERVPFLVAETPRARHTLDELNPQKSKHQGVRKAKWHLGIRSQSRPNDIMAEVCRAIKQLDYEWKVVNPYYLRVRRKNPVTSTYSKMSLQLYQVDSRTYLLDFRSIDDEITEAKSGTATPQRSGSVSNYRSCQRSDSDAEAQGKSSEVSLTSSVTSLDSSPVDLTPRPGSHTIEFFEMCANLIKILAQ
T1 sequence (Q9Y478 whole entry partner): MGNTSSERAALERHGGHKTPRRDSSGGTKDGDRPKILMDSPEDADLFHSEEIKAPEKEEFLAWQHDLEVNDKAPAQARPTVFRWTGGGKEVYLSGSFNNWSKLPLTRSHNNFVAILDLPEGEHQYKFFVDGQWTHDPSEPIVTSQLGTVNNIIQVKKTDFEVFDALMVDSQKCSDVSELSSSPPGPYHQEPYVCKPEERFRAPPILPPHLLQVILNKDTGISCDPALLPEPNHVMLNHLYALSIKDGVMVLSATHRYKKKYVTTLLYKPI
T1 sequence (P54619 whole entry partner): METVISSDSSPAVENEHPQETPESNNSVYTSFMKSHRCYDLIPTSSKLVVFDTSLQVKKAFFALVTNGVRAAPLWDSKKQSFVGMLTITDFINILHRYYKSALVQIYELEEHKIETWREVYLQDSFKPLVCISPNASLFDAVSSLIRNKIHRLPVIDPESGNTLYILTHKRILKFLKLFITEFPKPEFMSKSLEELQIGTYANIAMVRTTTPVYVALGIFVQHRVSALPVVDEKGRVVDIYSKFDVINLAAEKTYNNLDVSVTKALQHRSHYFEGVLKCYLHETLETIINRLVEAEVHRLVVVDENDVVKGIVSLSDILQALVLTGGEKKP

`COc1ccc(-c2cnc3c(-c4cccc5ncccc45)cnn3c2)cc1` [7g] showed a CLint scaled ([1]; liver microsomes) of 617 mL/min/kg, a CLHEP [1, 6] of 78.5 mL/min/kg and a CLint scaled ([2]; liver microsomes) of 148 mL/min/kg. For the same compound, the CLHEP [2, 6] was 47.5 mL/min/kg, the “IC50 AMPK” value (AMPK (AMPK-A1/B1/G1) [3]) was “Inactive” and the CLint scaled ([4]; liver microsomes) was 516 mL/min/kg. The CLHEP [4, 6] was 20.2 mL/min/kg.

In the case of `CC(C)Oc1ccc(-c2cnc3c(-c4ccnc5ccccc45)cnn3c2)cc1` [DMH1, 3, DMH1], the “IC50 AMPK” value (AMPK (AMPK-A1/B1/G1) [5]) is listed as “Inactive”.

For `c1ccc2c(-c3cnn4cc(-c5ccc(N6CCNCC6)cc5)cnc34)ccnc2c1` [LDN-193189, 2, LDN-193189], the “effect on ectopic ossification (in words)” value (ALK2 (Q207D)) is given as “could blunt ectopic ossification”.
